Assay results as given in ChEMBL document CHEMBL4699645 (2020).
Where a SMILES comes first, the peptide text is derived from it. Bridges are numbered along the chain shown (N, C = ends).

Experiments:
[1] = molecular target: Neuronal acetylcholine receptor; alpha3/beta2 (Rattus norvegicus, UniProt P04757+P12390); experiment: Antagonist activity at rat alpha3beta2 nAChR expressed in Xenopus laevis oocytes assessed as inhibition of Ach-induced response at -70 mV holding potential incubated for 5 mins by voltage-clamp assay; format: cell-based, Oocyte
Sequence of Neuronal acetylcholine receptor; alpha3/beta2 (P04757 whole entry): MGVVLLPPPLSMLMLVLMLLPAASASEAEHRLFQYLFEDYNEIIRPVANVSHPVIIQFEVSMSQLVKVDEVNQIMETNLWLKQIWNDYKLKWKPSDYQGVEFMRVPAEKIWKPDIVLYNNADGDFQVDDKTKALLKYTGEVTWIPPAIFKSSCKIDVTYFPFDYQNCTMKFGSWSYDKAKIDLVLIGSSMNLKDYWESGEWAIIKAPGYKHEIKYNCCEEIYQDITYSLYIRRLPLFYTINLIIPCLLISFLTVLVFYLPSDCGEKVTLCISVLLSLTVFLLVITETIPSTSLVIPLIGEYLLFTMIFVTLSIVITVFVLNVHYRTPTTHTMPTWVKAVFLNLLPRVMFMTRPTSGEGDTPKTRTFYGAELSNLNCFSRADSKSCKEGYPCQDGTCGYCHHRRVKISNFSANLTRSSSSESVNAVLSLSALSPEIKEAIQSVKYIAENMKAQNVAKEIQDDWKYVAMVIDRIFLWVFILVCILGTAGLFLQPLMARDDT
Sequence of Neuronal acetylcholine receptor; alpha3/beta2 (P12390 whole entry): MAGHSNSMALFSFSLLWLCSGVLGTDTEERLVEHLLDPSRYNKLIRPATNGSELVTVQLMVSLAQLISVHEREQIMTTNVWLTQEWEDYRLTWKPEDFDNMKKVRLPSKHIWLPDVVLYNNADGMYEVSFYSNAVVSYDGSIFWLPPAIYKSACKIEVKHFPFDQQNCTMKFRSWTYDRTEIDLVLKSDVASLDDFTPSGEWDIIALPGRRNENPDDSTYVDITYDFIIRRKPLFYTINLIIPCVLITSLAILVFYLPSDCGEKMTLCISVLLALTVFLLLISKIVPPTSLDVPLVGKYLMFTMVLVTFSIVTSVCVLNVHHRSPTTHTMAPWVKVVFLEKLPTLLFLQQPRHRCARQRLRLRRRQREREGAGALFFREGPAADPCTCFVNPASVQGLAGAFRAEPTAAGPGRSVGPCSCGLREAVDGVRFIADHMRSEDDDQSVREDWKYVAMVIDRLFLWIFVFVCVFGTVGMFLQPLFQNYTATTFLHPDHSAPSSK

[2] = molecular target: Neuronal acetylcholine receptor; alpha3/beta4 (Rattus norvegicus, UniProt P04757+P12392); experiment: Antagonist activity at rat alpha3beta4 nAChR expressed in Xenopus laevis oocytes assessed as inhibition of Ach-induced response at -70 mV holding potential incubated for 5 mins by voltage-clamp assay; format: cell-based, Oocyte
Sequence of Neuronal acetylcholine receptor; alpha3/beta4 (P04757 whole entry): as the sequence (P04757 whole entry) above
Sequence of Neuronal acetylcholine receptor; alpha3/beta4 (P12392 whole entry): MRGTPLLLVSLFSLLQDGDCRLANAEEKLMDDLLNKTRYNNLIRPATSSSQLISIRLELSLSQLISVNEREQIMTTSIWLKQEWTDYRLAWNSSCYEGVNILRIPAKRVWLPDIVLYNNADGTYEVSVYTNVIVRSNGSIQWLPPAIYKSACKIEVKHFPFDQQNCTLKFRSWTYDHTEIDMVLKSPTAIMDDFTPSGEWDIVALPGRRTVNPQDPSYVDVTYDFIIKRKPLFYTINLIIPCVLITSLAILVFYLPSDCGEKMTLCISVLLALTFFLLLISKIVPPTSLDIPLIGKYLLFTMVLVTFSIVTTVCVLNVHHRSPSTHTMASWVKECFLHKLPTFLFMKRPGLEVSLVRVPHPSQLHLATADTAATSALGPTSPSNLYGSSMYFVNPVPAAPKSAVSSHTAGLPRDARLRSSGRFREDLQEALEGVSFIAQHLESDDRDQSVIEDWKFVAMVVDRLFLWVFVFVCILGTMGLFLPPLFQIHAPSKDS

Rattus norvegicus = organism: Rattus norvegicus; experiment: Selectivity index, ratio of IC50 for rat alpha3beta4 nAChR expressed in Xenopus laevis oocytes to IC50 for rat alpha3beta2 nAChR expressed in Xenopus laevis oocytes; format: cell-based
[3] = Displacement of [125I]-alpha-bungarotoxin from Aplysia californica C-terminal His6-tagged N-terminal gp67 signal peptide-tagged acetylcholine receptor binding protein expressed in Hi5 insect cells preincubated for 3 hrs followed by [125I]-alpha-bungarotoxin measured after 5 mins by radioligand binding assay
[4] = molecular target: Neuronal acetylcholine receptor; alpha3/beta2 (Rattus norvegicus) (UniProt P04757+P12390); experiment: Antagonist activity at rat alpha3beta2 nAChR expressed in Xenopus laevis oocytes assessed as inhibition of Ach-induced response at -70 mV holding potential incubated for 5 mins by voltage-clamp assay relative to LvIA IC50; format: cell-based; conditions: Oocyte
Hi-5 = experiment: Displacement of [125I]-alpha-bungarotoxin from Aplysia californica C-terminal His6-tagged N-terminal gp67 signal peptide-tagged acetylcholine receptor binding protein expressed in Hi5 insect cells preincubated for 3 hrs followed by [125I]-alpha-bungarotoxin measured after 5 mins by radioligand binding assay relative to LvIA IC50; conditions: time 185.0 min
[5] = molecular target: Neuronal acetylcholine receptor; alpha3/beta4 (Rattus norvegicus) (UniProt P04757+P12392); experiment: Antagonist activity at rat alpha3beta4 nAChR expressed in Xenopus laevis oocytes assessed as inhibition of Ach-induced response at -70 mV holding potential incubated for 5 mins by voltage-clamp assay relative to LvIA IC50; format: cell-based; conditions: Oocyte

Structure (SMILES) | IC50 [1] | IC50 [2] | Ratio IC50 (Rattus norvegicus) | IC50 [3] | Ratio IC50 [4] | Ratio IC50 (Hi-5) | Ratio IC50 [5]
CC[C@H](C)[C@@H]1NC(=O)[C@H](C)NC(=O)[C@@H]2CCCN2C(=O)[C@H](Cc2cnc[nH]2)NC(=O)[C@H](CC(=O)O)NC(=O)[C@H](C(C)C)NC(=O)[C@H](CC(N)=O)NC(=O)[C@@H]2CSSC[C@H](NC(=O)CN)C(=O)N[C@@H](CSSC[C@@H](C(N)=O)NC1=O)C(=O)N[C@@H](CO)C(=O)N[C@@H](Cc1cnc[nH]1)C(=O)N1CCC[C@H]1C(=O)N[C@@H](C)C(=O)N2 (H-GCCSHPACNVDHPAIC-NH2; disulfide 2-8, 3-16) | 29 nM | 181 nM | 6.2 | 760 nM | 1.9 | -0.48 | 0.6
CC[C@H](C)[C@@H]1NC(=O)[C@H](CCC(=O)O)NC(=O)[C@@H]2CCCN2C(=O)[C@H](Cc2cnc[nH]2)NC(=O)[C@H](CC(=O)O)NC(=O)[C@H](C(C)C)NC(=O)[C@H](CC(N)=O)NC(=O)[C@@H]2CSSC[C@H](NC(=O)CN)C(=O)N[C@@H](CSSC[C@@H](C(N)=O)NC1=O)C(=O)N[C@@H](CO)C(=O)N[C@@H](C)C(=O)N1CCC[C@H]1C(=O)N[C@@H](C)C(=O)N2 (H-GCCSAPACNVDHPEIC-NH2; disulfide 2-8, 3-16) | > 10000 nM | > 10000 nM | – | 310000 nM | – | 2.13 | –
CC[C@H](C)[C@@H]1NC(=O)[C@H](CCC(=O)O)NC(=O)[C@@H]2CCCN2C(=O)[C@H](Cc2cnc[nH]2)NC(=O)[C@H](CC(=O)O)NC(=O)[C@H](C(C)C)NC(=O)[C@H](CC(=O)O)NC(=O)[C@@H]2CSSC[C@H](NC(=O)CN)C(=O)N[C@@H](CSSC[C@@H](C(N)=O)NC1=O)C(=O)N[C@@H](CO)C(=O)N[C@@H](Cc1cnc[nH]1)C(=O)N1CCC[C@H]1C(=O)N[C@@H](C)C(=O)N2 (H-GCCSHPACDVDHPEIC-NH2; disulfide 2-8, 3-16) | > 10000 nM | > 10000 nM | – | – | 0.24 | – | 7.1
CC[C@H](C)[C@@H]1NC(=O)[C@H](CCC(=O)O)NC(=O)[C@@H]2CCCN2C(=O)[C@H](Cc2cnc[nH]2)NC(=O)[C@H](CC(=O)O)NC(=O)[C@H](C)NC(=O)[C@H](CC(N)=O)NC(=O)[C@@H]2CSSC[C@H](NC(=O)CN)C(=O)N[C@@H](CSSC[C@@H](C(N)=O)NC1=O)C(=O)N[C@@H](CO)C(=O)N[C@@H](Cc1cnc[nH]1)C(=O)N1CCC[C@H]1C(=O)N[C@@H](C)C(=O)N2 (H-GCCSHPACNADHPEIC-NH2; disulfide 2-8, 3-16) | 71 nM | 309 nM | 4.4 | 2500 nM | 4.5 | 0.036 | 1.1
CC[C@H](C)[C@@H]1NC(=O)[C@H](CCC(=O)O)NC(=O)[C@H](C)NC(=O)[C@H](Cc2cnc[nH]2)NC(=O)[C@H](CC(=O)O)NC(=O)[C@H](C(C)C)NC(=O)[C@H](CC(N)=O)NC(=O)[C@@H]2CSSC[C@H](NC(=O)CN)C(=O)N[C@@H](CSSC[C@@H](C(N)=O)NC1=O)C(=O)N[C@@H](CO)C(=O)N[C@@H](Cc1cnc[nH]1)C(=O)N1CCC[C@H]1C(=O)N[C@@H](C)C(=O)N2 (H-GCCSHPACNVDHAEIC-NH2; disulfide 2-8, 3-16) | 202 nM | 543 nM | 2.7 | 7500 nM | 13 | 0.51 | 1.9
CC[C@H](C)[C@@H]1NC(=O)[C@H](CCC(=O)O)NC(=O)[C@@H]2CCCN2C(=O)[C@H](Cc2cnc[nH]2)NC(=O)[C@H](CC(=O)O)NC(=O)[C@H](C(C)C)NC(=O)[C@H](CCCCN)NC(=O)[C@@H]2CSSC[C@H](NC(=O)CN)C(=O)N[C@@H](CSSC[C@@H](C(N)=O)NC1=O)C(=O)N[C@@H](CO)C(=O)N[C@@H](Cc1cnc[nH]1)C(=O)N1CCC[C@H]1C(=O)N[C@@H](C)C(=O)N2 (H-GCCSHPACKVDHPEIC-NH2; disulfide 2-8, 3-16) | 3.8 nM | 2070 nM | 544 | – | – | – | –
CC[C@H](C)[C@@H]1NC(=O)[C@H](CCC(=O)O)NC(=O)[C@@H]2CCCN2C(=O)[C@H](Cc2cnc[nH]2)NC(=O)[C@H](CC(=O)O)NC(=O)[C@H](C(C)C)NC(=O)[C@H](CC(N)=O)NC(=O)[C@@H]2CSSC[C@H](NC(=O)[C@H](C)N)C(=O)N[C@@H](CSSC[C@@H](C(N)=O)NC1=O)C(=O)N[C@@H](CO)C(=O)N[C@@H](Cc1cnc[nH]1)C(=O)N1CCC[C@H]1C(=O)N[C@@H](C)C(=O)N2 (H-ACCSHPACNVDHPEIC-NH2; disulfide 2-8, 3-16) | 375 nM | 975 nM | 2.6 | 11800 nM | 24 | 0.71 | 3.4
CC[C@H](C)[C@@H]1NC(=O)[C@H](CCC(=O)O)NC(=O)[C@@H]2CCCN2C(=O)[C@H](Cc2cnc[nH]2)NC(=O)[C@H](CC(=O)O)NC(=O)[C@H](C(C)C)NC(=O)[C@H]([C@@H](C)CC)NC(=O)[C@@H]2CSSC[C@H](NC(=O)CN)C(=O)N[C@@H](CSSC[C@@H](C(N)=O)NC1=O)C(=O)N[C@@H](CO)C(=O)N[C@@H](Cc1cnc[nH]1)C(=O)N1CCC[C@H]1C(=O)N[C@@H](C)C(=O)N2 (H-GCCSHPACIVDHPEIC-NH2; disulfide 2-8, 3-16) | 7.5 nM | 5560 nM | 742 | – | 0.21 | – | 1.1
CC[C@H](C)[C@@H]1NC(=O)[C@H](CCC(=O)O)NC(=O)[C@@H]2CCCN2C(=O)[C@H](Cc2cnc[nH]2)NC(=O)[C@H](CC(=O)O)NC(=O)[C@H](C(C)C)NC(=O)[C@H](CC(N)=O)NC(=O)[C@@H]2CSSC[C@H](NC(=O)CN)C(=O)N[C@@H](CSSC[C@@H](C(N)=O)NC1=O)C(=O)N[C@@H](CO)C(=O)N[C@@H](Cc1cnc[nH]1)C(=O)N[C@@H](C)C(=O)N[C@@H](C)C(=O)N2 (H-GCCSHAACNVDHPEIC-NH2; disulfide 2-8, 3-16) | > 10000 nM | > 10000 nM | – | 34000 nM | – | 1.17 | –
CC[C@H](C)[C@@H]1NC(=O)[C@H](CCC(=O)O)NC(=O)[C@@H]2CCCN2C(=O)[C@H](Cc2cnc[nH]2)NC(=O)[C@H](C)NC(=O)[C@H](C(C)C)NC(=O)[C@H](CC(N)=O)NC(=O)[C@@H]2CSSC[C@H](NC(=O)CN)C(=O)N[C@@H](CSSC[C@@H](C(N)=O)NC1=O)C(=O)N[C@@H](CO)C(=O)N[C@@H](Cc1cnc[nH]1)C(=O)N1CCC[C@H]1C(=O)N[C@@H](C)C(=O)N2 (H-GCCSHPACNVAHPEIC-NH2; disulfide 2-8, 3-16) | 12 nM | 67.9 nM | 5.7 | 94 nM | 0.8 | -1.39 | 0.2
CC[C@H](C)[C@@H]1NC(=O)[C@H](CCC(=O)O)NC(=O)[C@@H]2CCCN2C(=O)[C@H](Cc2cnc[nH]2)NC(=O)[C@H](CC(=O)O)NC(=O)[C@H](C(C)C)NC(=O)CNC(=O)[C@@H]2CSSC[C@H](NC(=O)CN)C(=O)N[C@@H](CSSC[C@@H](C(N)=O)NC1=O)C(=O)N[C@@H](CO)C(=O)N[C@@H](Cc1cnc[nH]1)C(=O)N1CCC[C@H]1C(=O)N[C@@H](C)C(=O)N2 (H-GCCSHPACGVDHPEIC-NH2; disulfide 2-8, 3-16) | > 10000 nM | > 10000 nM | – | – | 0.48 | – | 19.2
CC(C)[C@@H]1NC(=O)[C@H](CC(N)=O)NC(=O)[C@@H]2CSSC[C@H](NC(=O)CN)C(=O)N[C@@H](CSSC[C@@H](C(N)=O)NC(=O)[C@H](C)NC(=O)[C@H](CCC(=O)O)NC(=O)[C@@H]3CCCN3C(=O)[C@H](Cc3cnc[nH]3)NC(=O)[C@H](CC(=O)O)NC1=O)C(=O)N[C@@H](CO)C(=O)N[C@@H](Cc1cnc[nH]1)C(=O)N1CCC[C@H]1C(=O)N[C@@H](C)C(=O)N2 (H-GCCSHPACNVDHPEAC-NH2; disulfide 2-8, 3-16) | 1080 nM | 1400 nM | 1.3 | 24000 nM | 69 | 1.02 | 4.8
CC[C@H](C)[C@@H]1NC(=O)[C@H](CCC(=O)O)NC(=O)[C@@H]2CCCN2C(=O)[C@H](C)NC(=O)[C@H](CC(=O)O)NC(=O)[C@H](C(C)C)NC(=O)[C@H](CC(N)=O)NC(=O)[C@@H]2CSSC[C@H](NC(=O)CN)C(=O)N[C@@H](CSSC[C@@H](C(N)=O)NC1=O)C(=O)N[C@@H](CO)C(=O)N[C@@H](Cc1cnc[nH]1)C(=O)N1CCC[C@H]1C(=O)N[C@@H](C)C(=O)N2 (H-GCCSHPACNVDAPEIC-NH2; disulfide 2-8, 3-16) | > 10000 nM | > 10000 nM | – | 670000 nM | – | 2.46 | –
CC[C@H](C)[C@@H]1NC(=O)[C@H](CCC(=O)O)NC(=O)[C@@H]2CCCN2C(=O)[C@H](Cc2cnc[nH]2)NC(=O)[C@H](CC(=O)O)NC(=O)[C@H](C(C)C)NC(=O)[C@H](CC(N)=O)NC(=O)[C@@H]2CSSC[C@H](NC(=O)CN)C(=O)N[C@@H](CSSC[C@@H](C(N)=O)NC1=O)C(=O)N[C@@H](C)C(=O)N[C@@H](Cc1cnc[nH]1)C(=O)N1CCC[C@H]1C(=O)N[C@@H](C)C(=O)N2 (H-GCCAHPACNVDHPEIC-NH2; disulfide 2-8, 3-16) | 54 nM | 193 nM | 3.6 | 780 nM | 3.5 | -0.47 | 0.7
CC[C@H](C)[C@@H]1NC(=O)[C@H](CCC(=O)O)NC(=O)[C@@H]2CCCN2C(=O)[C@H](Cc2cnc[nH]2)NC(=O)[C@H](CC(=O)O)NC(=O)[C@H](C(C)C)NC(=O)[C@H](CC(C)C)NC(=O)[C@@H]2CSSC[C@H](NC(=O)CN)C(=O)N[C@@H](CSSC[C@@H](C(N)=O)NC1=O)C(=O)N[C@@H](CO)C(=O)N[C@@H](Cc1cnc[nH]1)C(=O)N1CCC[C@H]1C(=O)N[C@@H](C)C(=O)N2 (H-GCCSHPACLVDHPEIC-NH2; disulfide 2-8, 3-16) | 3.2 nM | 325 nM | 102 | – | – | – | –
